Values of other authors in US20200000714A1, “OPHTHALMIC COMPOSITION COMPRISING PVP-I” (MEDIVIS S.R.L., priority 2016, published 2020).
Where two headings read alike, the source gives them in different places.

For Povidone-iodine [PVP-I], the “free molecular iodine I2 concentration” value (10% solutions of PVP-I) is listed as “about 1 ppm” and the “free molecular iodine I2 concentration” value (solutions with PVP-I concentration of 0.1%) is listed as “about 20 ppm”.
